In test [1] the test system is GDF8 signaling (GDF pSMAD, MPC11). The test is described as follows: AlphaScreen SureFire SMAD3 (p-Ser423/425) assay, inhibition of GDF8 signaling. Type of test: cell-based. The following applies: Mus musculus, MPC-11, p-SMAD-3 (Ser423/425) in cell lysate after GDF8 stimulation.
The test system of test [2] is TGF-β signaling (TGF-β pSMAD, MPC-11). The experiment in a line: AlphaScreen SureFire SMAD3 (p-Ser423/425) assay, inhibition of TGF-β signaling. Type of test: cell-based. To be noted: Mus musculus, p-SMAD-3 (Ser423/425) in cell lysate after TGF-β stimulation. The gist of the method:
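Phosphorylation of endogenous SMAD-3 at Ser423/425 was quantified with an AlphaScreen SureFire assay. Cells were exposed to compound for about 10 minutes, stimulated with TGF-β, and lysed in 1× Lysis Buffer. Lysate (5 μL) was combined with Reaction/Activation buffer plus Acceptor beads for 2 hours, then Donor beads for 1½ hours, and read on a plate reader.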
(In general: Alpha assays give light when donor and acceptor beads are brought close together.)

SMILES strings stand for the structures. pIC50: −log10 of the molar value.

As a reminder, the pIC50 is −log10 of the IC50, conventionally taken in molar units. Regarding `Fc1cccc(-c2nn3c(c2-c2ccc4nccnc4c2)CCC3)c1` [Compound 82, 6-(2-(3-Fluorophenyl)-5,6-dihydro-4H-pyrrolo[1,2-b]pyrazol-3-yl)quinoxaline], the negative-log IC50 (pIC50) was 6.48 in test [1] and 5.71 in test [2].

For the molecule `Fc1ccc(-c2nn3c(c2-c2ccc4[nH]ncc4c2)CCC3)cc1F` [Compound 83, 5-(2-(3,4-Difluorophenyl)-5,6-dihydro-4H-pyrrolo[1,2-b]pyrazol-3-yl)-1H-indazole], the results for the pIC50 in test [1] and in test [2] were 7.15 and 6.29, respectively.

As to `Fc1ccc(-c2nn3c(c2-c2ccc4cn[nH]c4c2)CCC3)cc1F` [Compound 84, 6-(2-(3,4-Difluorophenyl)-5,6-dihydro-4H-pyrrolo[1,2-b]pyrazol-3-yl)-1H-indazole], the figures for the negative-log IC50 (pIC50) in test [1] and in test [2] were 6.49 and 5.79, respectively.

Regarding `Cn1cnc2ccc(-c3c(-c4ccc(F)c(F)c4)nn4c3CCC4)cc21` [Compound 85, 6-(2-(3,4-Difluorophenyl)-5,6-dihydro-4H-pyrrolo[1,2-b]pyrazol-3-yl)-1-methyl-1H-benzo[d]imidazole], the values for the negative logarithm of the IC50 (pIC50) in test [1] and in test [2] were 6.97 and 6.60, respectively.

In the case of `Fc1ccc(-c2nn3c(c2-c2ccc4nccn4c2)CCC3)cc1F` [Compound 86, 6-(2-(3,4-Difluorophenyl)-5,6-dihydro-4H-pyrrolo[1,2-b]pyrazol-3-yl)imidazo[1,2-a]pyridine], the results for the negative logarithm of the IC50 (pIC50) in test [1] and in test [2] were 6.56 and 6.03, respectively.

Consider `Fc1ccc(-c2nn3c(c2-c2ccc4ncsc4c2)CCC3)cc1F` [Compound 87, 6-(2-(3,4-Difluorophenyl)-5,6-dihydro-4H-pyrrolo[1,2-b]pyrazol-3-yl)benzo[d]thiazole], for which the negative-log IC50 (pIC50) is 6.44 in test [1] and 5.99 in test [2].

In the case of `Fc1ccc(-c2nn3c(c2-c2ccc4ncccc4c2)CCC3)cc1F` [Compound 88, 6-(2-(3,4-Difluorophenyl)-5,6-dihydro-4H-pyrrolo[1,2-b]pyrazol-3-yl)quinoline], the results for the negative-log IC50 (pIC50) in test [1] and in test [2] were 5.98 and 5.02, respectively.

On to `Fc1ccc(-c2nn3c(c2-c2ccc4nccnc4c2)CCC3)cc1F` [Compound 89, 6-(2-(3,4-Difluorophenyl)-5,6-dihydro-4H-pyrrolo[1,2-b]pyrazol-3-yl)quinoxaline], for which the negative-log IC50 (pIC50) in test [1] was 6.38; in test [2], 5.79.

With `c1cc2c(cc1-c1nn3c(c1-c1ccc4[nH]ncc4c1)CCC3)OCO2` [Compound 90, 5-(2-(Benzo[d][1,3]dioxol-5-yl)-5,6-dihydro-4H-pyrrolo[1,2-b]pyrazol-3-yl)-1H-indazole], the values for the negative logarithm of the IC50 (pIC50) in test [1] and in test [2] were 6.11 and 5.40, respectively.

With `Fc1ccc(-c2nn3c(c2-c2ccc4[nH]ncc4c2)CCC3)c(F)c1` [Compound 91, 5-(2-(2,4-Difluorophenyl)-5,6-dihydro-4H-pyrrolo[1,2-b]pyrazol-3-yl)-1H-indazole], the negative logarithm of the IC50 (pIC50) is 6.58 in test [1] and 6.08 in test [2].

For `Fc1ccc(-c2nn3c(c2-c2ccc4cn[nH]c4c2)CCC3)c(F)c1` [Compound 92, 6-(2-(2,4-Difluorophenyl)-5,6-dihydro-4H-pyrrolo[1,2-b]pyrazol-3-yl)-1H-indazole], the pIC50 was 6.64 in test [1] and 5.96 in test [2].

As to `Cn1cnc2ccc(-c3c(-c4ccc(F)cc4F)nn4c3CCC4)cc21` [Compound 93, 6-(2-(2,4-Difluorophenyl)-5,6-dihydro-4H-pyrrolo[1,2-b]pyrazol-3-yl)-1-methyl-1H-benzo[d]imidazole], the values for the pIC50 in test [1] and in test [2] were 7.11 and 6.50, respectively.

Regarding `Fc1ccc(-c2nn3c(c2-c2ccc4nccn4c2)CCC3)c(F)c1` [Compound 94, 6-(2-(2,4-Difluorophenyl)-5,6-dihydro-4H-pyrrolo[1,2-b]pyrazol-3-yl)imidazo[1,2-a]pyridine], the pIC50 in test [1] is 7.11; in test [2] it was 6.32.

With `Fc1ccc(-c2nn3c(c2-c2ccc4ncccc4c2)CCC3)c(F)c1` [Compound 95, 6-(2-(2,4-Difluorophenyl)-5,6-dihydro-4H-pyrrolo[1,2-b]pyrazol-3-yl)quinoline], the pIC50 in test [1] is 6.25; in test [2], 5.43.

Take `Fc1ccc(-c2nn3c(c2-c2ccc4nccnc4c2)CCC3)c(F)c1` [Compound 96, 6-(2-(2,4-Difluorophenyl)-5,6-dihydro-4H-pyrrolo[1,2-b]pyrazol-3-yl)quinoxaline]: the pIC50 in test [1] was 6.81; in test [2], 6.18.

On to `Fc1ccc(-c2nn3c(c2-c2ccc4ncsc4c2)CCC3)c(F)c1` [Compound 97, 6-(2-(2,4-Difluorophenyl)-5,6-dihydro-4H-pyrrolo[1,2-b]pyrazol-3-yl)benzo[d]thiazole], for which the pIC50 in test [1] was 7.58; in test [2], 6.94.

For the molecule `COc1ccc(-c2nn3c(c2-c2ccc4[nH]ncc4c2)CCC3)cc1` [Compound 98, 5-(2-(4-Methoxyphenyl)-5,6-dihydro-4H-pyrrolo[1,2-b]pyrazol-3-yl)-1H-indazole], the pIC50 in test [1] was 6.53; in test [2] it was 6.01.

As for `COc1ccc(-c2nn3c(c2-c2ccc4cn[nH]c4c2)CCC3)cc1` [Compound 99, 6-(2-(4-Methoxyphenyl)-5,6-dihydro-4H-pyrrolo[1,2-b]pyrazol-3-yl)-1H-indazole], the pIC50 in test [1] is 6.49; in test [2], 5.78.

In the case of `COc1ccc(-c2nn3c(c2-c2ccc4ncsc4c2)CCC3)cc1` [Compound 100, 6-(2-(4-Methoxyphenyl)-5,6-dihydro-4H-pyrrolo[1,2-b]pyrazol-3-yl)benzo[d]thiazole], the figures for the pIC50 in test [1] and in test [2] were 6.16 and 5.43, respectively.

As for `COc1ccc(-c2nn3c(c2-c2ccc4nccnc4c2)CCC3)cc1` [Compound 102, 6-(2-(4-Methoxyphenyl)-5,6-dihydro-4H-pyrrolo[1,2-b]pyrazol-3-yl)quinoxaline], the figures for the pIC50 in test [1] and in test [2] were 6.16 and 5.38, respectively.

As to `Fc1ccc(-c2nn3c(c2-c2ccc4ncnn4c2)CCC3)cc1` [Compound 103, 6-(2-(4-Fluorophenyl)-5,6-dihydro-4H-pyrrolo[1,2-b]pyrazol-3-yl)-[1,2,4]triazolo[1,5-a]pyridine], the results for the pIC50 in test [1] and in test [2] were 6.88 and 6.28, respectively.

For the molecule `Cc1cccc(-c2nn3c(c2-c2ccc4ncnn4c2)CCC3)c1` [Compound 104, 6-(2-(m-Tolyl)-5,6-dihydro-4H-pyrrolo[1,2-b]pyrazol-3-yl)-[1,2,4]triazolo[1,5-a]pyridine], the negative-log IC50 (pIC50) in test [1] is 7.58; in test [2], 7.08.

Take `Cc1cc(-c2nn3c(c2-c2ccc4ncnn4c2)CCC3)ccc1F` [Compound 105, 6-(2-(4-Fluoro-3-methylphenyl)-5,6-dihydro-4H-pyrrolo[1,2-b]pyrazol-3-yl)-[1,2,4]triazolo[1,5-a]pyridine]: the pIC50 in test [1] is 7.47; in test [2], 6.95.

Turning to `COc1cccc(-c2nn3c(c2-c2ccc4ncnn4c2)CCC3)c1` [Compound 106, 6-(2-(3-Methoxyphenyl)-5,6-dihydro-4H-pyrrolo[1,2-b]pyrazol-3-yl)-[1,2,4]triazolo[1,5-a]pyridine], the values for the negative-log IC50 (pIC50) in test [1] and in test [2] were 6.80 and 6.22, respectively.

Turning to `Clc1cccc(-c2nn3c(c2-c2ccc4ncnn4c2)CCC3)c1` [Compound 107, 6-(2-(3-Chlorophenyl)-5,6-dihydro-4H-pyrrolo[1,2-b]pyrazol-3-yl)-[1,2,4]triazolo[1,5-a]pyridine], the figures for the negative-log IC50 (pIC50) in test [1] and in test [2] were 7.46 and 6.82, respectively.

In the case of `FC(F)(F)c1cccc(-c2nn3c(c2-c2ccc4ncnn4c2)CCC3)c1` [Compound 108, 6-(2-(3-Trifluoromethylphenyl)-5,6-dihydro-4H-pyrrolo[1,2-b]pyrazol-3-yl)-[1,2,4]triazolo[1,5-a]pyridine], the negative-log IC50 (pIC50) in test [1] was 7.40; in test [2], 6.80.

Take `Fc1cccc(-c2nn3c(c2-c2ccc4ncnn4c2)CCC3)c1` [Compound 109, 6-(2-(3-Fluorophenyl)-5,6-dihydro-4H-pyrrolo[1,2-b]pyrazol-3-yl)-[1,2,4]triazolo[1,5-a]pyridine]: the pIC50 in test [1] is 6.88; in test [2] it was 6.03.

On to `Fc1ccc(-c2nn3c(c2-c2ccc4ncnn4c2)CCC3)cc1F` [Compound 110, 6-(2-(3,4-Difluorophenyl)-5,6-dihydro-4H-pyrrolo[1,2-b]pyrazol-3-yl)-[1,2,4]triazolo[1,5-a]pyridine], for which the pIC50 in test [1] is 6.90; in test [2], 6.23.

On to `Fc1ccc(-c2nn3c(c2-c2ccc4ncnn4c2)CCC3)c(F)c1` [Compound 111, 6-(2-(2,4-Difluorophenyl)-5,6-dihydro-4H-pyrrolo[1,2-b]pyrazol-3-yl)-[1,2,4]triazolo[1,5-a]pyridine], for which the pIC50 in test [1] is 7.21; in test [2], 6.64.

On to `Fc1cc(F)c(-c2nn3c(c2-c2ccc4[nH]ncc4c2)CCC3)cc1F` [Compound 112, 5-(2-(2,4,5-Trifluorophenyl)-5,6-dihydro-4H-pyrrolo[1,2-b]pyrazol-3-yl)-1H-indazole], for which the negative-log IC50 (pIC50) in test [1] is 6.86; in test [2] it was 6.09.

Take `Fc1cc(F)c(-c2nn3c(c2-c2ccc4cn[nH]c4c2)CCC3)cc1F` [Compound 113, 6-(2-(2,4,5-Trifluorophenyl)-5,6-dihydro-4H-pyrrolo[1,2-b]pyrazol-3-yl)-1H-indazole]: the pIC50 is 6.65 in test [1] and 5.83 in test [2].

Consider `Cn1cnc2ccc(-c3c(-c4cc(F)c(F)cc4F)nn4c3CCC4)cc21` [Compound 114, 1-Methyl-6-(2-(2,4,5-trifluorophenyl)-5,6-dihydro-4H-pyrrolo[1,2-b]pyrazol-3-yl)-1H-benzo[d]imidazole], for which the negative-log IC50 (pIC50) in test [1] is 7.62; in test [2], 7.06.

Regarding `Fc1cc(F)c(-c2nn3c(c2-c2ccc4nccn4c2)CCC3)cc1F` [Compound 115, 6-(2-(2,4,5-Trifluorophenyl)-5,6-dihydro-4H-pyrrolo[1,2-b]pyrazol-3-yl)imidazo[1,2-a]pyridine], the pIC50 in test [1] is 7.18; in test [2], 6.43.

These data come from patent US10822337B2, “TGF-β inhibitorC” (Rigel Pharmaceuticals, Inc., priority 2015, dated 2020).
